Laboratory results published in patent US8153784B2, “Imaging of enzyme activity” (The General Hospital Corporation, priority 2004, dated 2012).

Assays:
endogenous mouse MPO = biological target: T1, endogenous mouse MPO (Mus musculus, UniProt P11247); assay: LPS/Matrigel experiments, MR imaging; format: in vivo; conditions: mice; LPS/Matrigel right vs Matrigel left
T1 construct: endogenous in cells; host or cells: inflammatory cells recruited by LPS in C57BL6 male mice (Matrigel site in the thigh, or flank muscle myositis)
T1 sequence (P11247 139-718): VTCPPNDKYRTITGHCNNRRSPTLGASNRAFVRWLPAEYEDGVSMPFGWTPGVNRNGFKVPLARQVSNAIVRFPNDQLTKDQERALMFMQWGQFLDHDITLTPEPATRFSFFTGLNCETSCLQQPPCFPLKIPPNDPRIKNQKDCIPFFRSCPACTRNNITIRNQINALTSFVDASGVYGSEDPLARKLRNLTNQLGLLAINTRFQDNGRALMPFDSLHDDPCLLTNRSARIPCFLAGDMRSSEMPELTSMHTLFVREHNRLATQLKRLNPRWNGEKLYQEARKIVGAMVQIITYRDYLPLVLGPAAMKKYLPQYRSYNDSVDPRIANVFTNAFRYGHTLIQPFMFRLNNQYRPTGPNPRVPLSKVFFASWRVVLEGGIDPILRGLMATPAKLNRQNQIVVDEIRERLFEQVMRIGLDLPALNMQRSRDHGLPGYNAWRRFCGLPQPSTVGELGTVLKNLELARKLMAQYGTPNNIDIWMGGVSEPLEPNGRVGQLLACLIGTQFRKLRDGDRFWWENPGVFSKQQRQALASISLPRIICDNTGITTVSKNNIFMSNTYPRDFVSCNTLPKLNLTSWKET
Description: The MR imaging experiments were performed on a 1.5 T GE Excite scanner and a 4.7 T Bruker Pharmascan scanner. For all MR imaging experiments, precontrast T2-(TR=2000, TE=100, ETL=8, NEX=4, fast spin echo sequence) and T1-weighted images (TR=500, TE=11, NEX=4, spin echo sequence) with fat saturation were initially performed to locate the gels or area of inflammation. The substrates (0.3 mmol/kg) were subsequently injected via the tail vein of the mouse. The mouse was immediately imaged after the injection of the contrast agent using multiple T1-weighted sequences with fat saturation for at least 3 hours.
Ten-week old C57BL6 male mice were obtained from Jackson Laboratories. A total of 22 mice were used for the study. • 1. MPO/Matrigel imaging experiments: Matrigel™ (Beckton-Dickinson), a […] basement membrane matrix gel was used to immobilize human MPO and glucose oxidase (to supply H2O2 required for detecting MPO oxidative activity, Calbiochem). This was chosen to reflect deposits of human MPO in inflamed tissue in a mouse model. 400 μL of a mixture of Matrigel™ and MEM (Cambrex) was injected slowly into the thighs of each mouse one hour prior to imaging. The right thigh mixture also contained 15 U of MPO and 4 U of glucose oxidase (Calbiochem), while the left thigh mixture contained no enzyme and thus serves as an internal control. […]

[1] = biological target: T2, horseradish peroxidase (HRP) (Armoracia rusticana, UniProt P00433); assay: Pseudo-first-order rate constants of HRP-mediated conversion (relaxation times over time, 0.47 T); format: biochemical, horseradish; design: purchased Sigma-Aldrich type XII (catalogue number not given)
T2 sequence (P00433 31-338): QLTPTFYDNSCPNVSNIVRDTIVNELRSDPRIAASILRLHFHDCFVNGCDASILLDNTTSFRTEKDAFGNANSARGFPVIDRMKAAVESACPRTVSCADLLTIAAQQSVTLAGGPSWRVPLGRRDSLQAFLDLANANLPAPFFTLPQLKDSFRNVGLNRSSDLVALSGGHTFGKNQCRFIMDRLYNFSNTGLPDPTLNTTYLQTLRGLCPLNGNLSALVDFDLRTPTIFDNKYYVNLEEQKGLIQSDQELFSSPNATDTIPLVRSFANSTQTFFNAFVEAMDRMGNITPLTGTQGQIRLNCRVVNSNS
Description: Kinetics of the samples were observed by measuring T1 and T2 at 0.47 T and 40° C. of the samples over at least a 24 hour period. At different time points, 1 M of sodium azide (final concentration=0.17 M) was added to stop the enzyme mediated reaction. The resultant progress curve was fitted with an empirical mathematical model and analyzed according to the Guggenheim method to obtain the pseudo-first-order rate constants (Guggenheim E A. Philos. Mag. 1926; 2:538).
An important property of a suitable substrate for an enzyme is the kinetics of enzymatic reaction. To determine the utility of the paramagnetic complexes as suitable substrates for human myeloperoxidase (MPO), we measured the pseudo-first-order rate constant of these substrates in MPO, and compared to the same substrates' reactions in Horse Radish Peroxidase (HRP) by monitoring the changes in relaxation time over time. […] The results shown were obtained using T1 measurements. T2 measurements yielded nearly identical results. The results are presented as mean±SD. N/A=not applicable.

Structure (SMILES) | increased enhancement on the MPO side (endogenous mouse MPO) | fraction of the final relaxation rate obtained within the first 5 minutes [1] | Pseudo first-order rate constant ([1]; from T1 measurements, mean±SD)
O=C([O-])CN(CCN(CC(=O)[O-])CC(=O)NCCc1c[nH]c2ccc(O)cc12)CCN(CC(=O)[O-])CC(=O)NCCc1c[nH]c2ccc(O)cc12.[Gd+3] [2Gd^3+] | 1.3 fold |  | 
CC(C(=O)NCC(=O)NCCc1c[nH]c2ccc(O)cc12)N1CCN(CC(=O)[O-])CCN(CC(=O)[O-])CCN(CC(=O)[O-])CC1.[Gd+3] (stereo not drawn) [5-HT-DOTA(Gd), Glycylmethyl DOTA(Gd) 5-Hydroxytryptamide] |  | more than 80% | 0.01 s⁻¹
